Source: patent US7084301B2 (Ranbaxy Laboratories Limited, priority 2003, dated 2006)

What was measured:
[1] = target: T1, human α1A-adrenoceptors (Homo sapiens, UniProt P35348); assay: Radioligand-receptor binding assay, human recombinant α1A-adrenoceptor, [3H]prazosin; details: human recombinant receptors in CHO cells, mean ± SEM; read-out: pKi α1A (converted)
T1 sequence (P35348 1-466): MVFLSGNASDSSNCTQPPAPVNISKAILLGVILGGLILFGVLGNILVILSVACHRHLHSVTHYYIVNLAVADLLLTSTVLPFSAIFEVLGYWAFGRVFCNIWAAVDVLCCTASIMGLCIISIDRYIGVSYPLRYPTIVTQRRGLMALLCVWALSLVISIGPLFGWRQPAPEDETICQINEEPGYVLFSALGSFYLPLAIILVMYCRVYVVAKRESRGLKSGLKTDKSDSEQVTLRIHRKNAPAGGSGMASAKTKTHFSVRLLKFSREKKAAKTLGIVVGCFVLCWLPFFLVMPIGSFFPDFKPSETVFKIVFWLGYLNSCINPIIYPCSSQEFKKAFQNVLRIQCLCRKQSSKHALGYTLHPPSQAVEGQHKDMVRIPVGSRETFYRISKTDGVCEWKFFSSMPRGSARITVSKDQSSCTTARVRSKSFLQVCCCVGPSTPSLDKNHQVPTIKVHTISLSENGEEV
Description: (§1) Chinese hamster ovary (CHO) cells which had been stably transfected with human α1A, α1B, or α1D-adrenoceptors (Keffel et al., Biochem. Biophys. Res. Commun., 2000, 272, 906–11) were cultured in an atmosphere of 5% CO2/95% air at 37° C. in F-12 HAM medium supplemented with 10% heat-inactivated fetal calf serum, 1 mM glutamine, 100 U/ml penicillin and 0.1 mg/ml streptomycin. Selection pressure was maintained by regular addition of geneticin to the culture medium.
(§2) Competitive radioligand binding to the cloned subtypes of […] was performed using [^3H]prazosin as the radioligand as described by Michel et al, Br. J. Pharmacol., 98, 883–889 (1989) with minor modifications. Experiments were performed in binding buffer consisting of 50 mM Tris, 10 mM MgCl2 and 0.5 mM EDTA at pH 7.5 in a total assay volume of 1000 μl. The protein content typically was 40–60 μg/assay. The mixtures were incubated at 25° C. for 45 minutes. Incubations were terminated by rapid vacuum filtration over GF/C filters followed by two washes of the filters each with 10 ml ice-cold incubation buffer. Non-specific binding was defined as binding in the presence of 10 μM phentolamine.
(§3) The IC50 & Kd were estimated by using the non-linear curve fitting program using G Pad Prism software. The value of inhibition constant Ki was calculated from competitive binding studies by using Cheng & Prusoff equation [Cheng & Prusoff, Biochem. Pharmacol., 22, 3099–3108 (1973)], Ki=IC50/(1+L/Kd), where L is the concentration of [^3H] prazosin used in the particular experiment. Kd of [^3H] prazosin was determined from saturation binding studies. The values were tabulated as mean±SEM of pKi values, where pKi is the −log of Ki value.

[2] = target: T2, human α1B-adrenoceptors (Homo sapiens, UniProt P35368); assay: Radioligand-receptor binding assay, human recombinant α1B-adrenoceptor, [3H]prazosin
T2 sequence (P35368 1-520): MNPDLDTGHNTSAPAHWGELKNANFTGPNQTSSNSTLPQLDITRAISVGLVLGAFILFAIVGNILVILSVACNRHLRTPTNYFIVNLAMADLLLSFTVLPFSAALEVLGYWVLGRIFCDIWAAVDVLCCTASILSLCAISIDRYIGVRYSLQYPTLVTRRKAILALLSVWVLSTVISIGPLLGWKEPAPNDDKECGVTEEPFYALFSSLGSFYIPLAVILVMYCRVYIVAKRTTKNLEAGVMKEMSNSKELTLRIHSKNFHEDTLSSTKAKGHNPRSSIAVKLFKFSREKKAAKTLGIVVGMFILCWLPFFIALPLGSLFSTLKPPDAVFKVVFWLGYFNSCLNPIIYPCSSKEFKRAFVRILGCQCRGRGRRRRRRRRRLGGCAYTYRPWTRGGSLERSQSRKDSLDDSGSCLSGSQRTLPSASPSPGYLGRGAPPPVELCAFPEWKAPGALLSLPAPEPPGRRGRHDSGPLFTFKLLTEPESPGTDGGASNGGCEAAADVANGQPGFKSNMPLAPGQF
Description: as §1, §2, §3

[3] = target: T3, human α1D-adrenoceptors (Homo sapiens, UniProt P25100); assay: Radioligand-receptor binding assay, human recombinant α1D-adrenoceptor, [3H]prazosin
T3 sequence (P25100 1-572): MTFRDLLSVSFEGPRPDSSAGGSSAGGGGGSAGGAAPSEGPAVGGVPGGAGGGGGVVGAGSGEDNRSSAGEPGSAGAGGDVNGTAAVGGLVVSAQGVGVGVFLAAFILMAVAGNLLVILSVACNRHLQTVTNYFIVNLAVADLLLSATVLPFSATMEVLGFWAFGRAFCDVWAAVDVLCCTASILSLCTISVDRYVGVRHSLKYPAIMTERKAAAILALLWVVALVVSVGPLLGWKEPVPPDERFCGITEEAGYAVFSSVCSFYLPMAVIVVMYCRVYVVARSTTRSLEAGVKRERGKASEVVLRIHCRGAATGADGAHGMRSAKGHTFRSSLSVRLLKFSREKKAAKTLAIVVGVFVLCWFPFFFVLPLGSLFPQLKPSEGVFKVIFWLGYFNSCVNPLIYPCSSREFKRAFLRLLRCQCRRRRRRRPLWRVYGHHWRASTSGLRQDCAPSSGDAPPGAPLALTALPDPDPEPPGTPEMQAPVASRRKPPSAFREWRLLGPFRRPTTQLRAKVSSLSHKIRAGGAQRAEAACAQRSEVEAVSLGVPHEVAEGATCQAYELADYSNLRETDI
Description: as §1, §2, §3

Compound	Ki [1] [nM]	Ki [2] [nM]	Ki [3] [nM]
CCOc1ccccc1OCCNC(C)Cc1ccc(O)c(S(N)(=O)=O)c1 (racemic) [Racemate]	0.0832	1.1	0.214
CCOc1ccccc1OCCN[C@@H](C)Cc1ccc(O)c(S(N)(=O)=O)c1 [(S)-isomer]	2.24	21.9	7.94
